Source: patent US7241863B2, “Human metabotropic glutamate receptor” (NPS Pharmaceuticals, Inc., priority 2003, dated 2007)

Legend:
Type in all cases: cell-based
human mGluR5d receptor = biological target: T1, human mGluR5d receptor (Homo sapiens, UniProt P41594); assay: Xenopus oocyte expression assay, calcium-activated chloride current; conditions: for desensitization of evoked calcium-activated chloride currents: repeated application of 10-100 μM, Xenopus oocytes expressing hmGluR5d
T1 construct: expressed in transfected cells; host or cells: Xenopus laevis oocytes injected with cRNA transcribed from phmGluR5d(Hyg+)
Description: This example describes the activation of the novel hmGluRSd splice variant using a Xenopus oocyte expression assay. PhmGluR5d(Hyg+) DNA was linearized by restriction enzyme digestion, and capped sense-strand cRNA was synthesized by T7 RNA polymerase transcription (Ambion Message Machine Kit). In vitro-transcribed RNA was concentrated by ethanol precipitation and the size and integrity of the RNA was assessed on a denaturing agarose gel.
In vitro-transcribed RNA (˜10 ng) encoding the human mGluR5d receptor was injected into Xenopus Oocytes. Following injection, oocytes were incubated at 16° C. in MBS containing 1 mM CaCl2 for 2 to 7 days prior to electrophysiological recording. Following the incubation, the oocytes were voltage-clamped using standard electrophysiological techniques. […] Activation of the hmGluR5d receptor was detected by increases in the calcium-activated chloride current.
Test substances were applied by superfusion at a flow rate of about 5 ml/min. Receptor activation was determined by measuring the increase in calcium-activated chloride current (ICl) Increases in ICl were quantified by measuring the peak inward current stimulated by activating agent, relative to the holding current at […].

hmGluR5d receptor = biological target: T2, hmGluR5d receptor (Homo sapiens, UniProt P41594); assay: Increases in intracellular calcium (Fluo3-AM, FLIPR) in transfected HEK293 cells; conditions: hmGluR5d expressed in HEK293 cells, FIG. 4
T2 construct: The full-length human mGluR5d was then subcloned into the mammalian expression vector pcDNA3.1/Hygro(+) vector; expressed in transfected cells; host or cells: HEK293 cells (ATCC CRL 1573) transfected with phmGluR5d(Hyg+)
Description: Human embryonic kidney cells (293, ATCC, CRL 1573) are grown in a routine manner. Cells are plated in 10 cm cell-culture plates in Dulbecco's modified Eagle's medium (D-MEM) containing 10% fetal bovine serum (FBS) and 1× penicillin-streptomycin (Life Technologies) so that they are approximately 70% confluent after an overnight incubation. To prepare DNA for transfection, the plasmid phmGluR5d(Hyg+) is precipitated with ethanol, rinsed and resuspended in sterile water at a concentration of 1 μg/μl. Ten micrograms of the plasmid DNA is incubated with the liposome formulation LipofectAMINE™ (Life Technologies) for 20 minutes in 1.6 mls of serum-free Opti-MEM (Life Technologies). After the room temperature incubation, 6.4 mls of Opti-MEM is added to the transfection mix. This solution is added to the cells which have been rinsed twice with 8 ml washes of Opti-MEM. The cells and transfection mix are incubated at 37° C. for 5 hours, at which time 8 mls of Opti-MEM/20% FBS is added to bring the FBS concentration to 10%. […] Expression of the novel human mGluR5d splice variant of the present invention in clonal cell lines or pools can be assessed by Northern blot analysis of human mGluR5d mRNA or functionally as in the above experiments by assessing increases in intracellular calcium in response to mGluR5 agonists. […]

[1] = biological target: T3, hCaR/hmGluR5d chimeric receptor (Homo sapiens, UniProt P41180); assay: Increases in intracellular calcium (Fluo3-AM, FLIPR) in HEK293 cells expressing the chimeric receptor; conditions: hCaR/hmGluR5d expressed in HEK293 cells, FIG. 5
T3 construct: expressed in transfected cells; host or cells: HEK293 cells (ATCC CRL 1573) stably transfected with phCaR/hmGluR5d(Hyg+)
Description: This example provides a method for the production of stably transfected mammalian cell lines expressing the chimeric receptor hCaR/hmGluR5d, but is not meant to be limiting. Human embryonic kidney cells (293, ATCC, CRL 1573) are grown in a routine manner. Cells are plated in 10 cm cell-culture plates in Dulbecco's modified Eagle's medium (D-MEM) containing 10% fetal bovine serum (FBS) and 1×penicillin-streptomycin (Life Technologies) so that they are approximately 70% confluent after an overnight incubation. To prepare DNA for transfection, the plasmid phCaR/hmGluR5d(Hyg+) is precipitated with ethanol, rinsed and resuspended in sterile water at a concentration of 1 μg/μl. Ten micrograms of the plasmid DNA is incubated with the liposome formulation LipofectAMINE™ (Life Technologies) for 20 minutes in 1.6 mls of serum-free Opti-MEM (Life Technologies). […] Expression can also be assessed by Western blot analysis using the commercially available antibody Anti-Rat mGluR5, polyclonal (Upstate Biotechnology).
The chimeric receptor, hCaR/hmGluR5d, also mediates the stimulation of inositol phosphate (IP)/Ca^2+ signal transduction. […] After an additional 24 hour incubation, cells are loaded with the calcium indicator dye Fluo3-AM and increases in intracellular calcium in response to calcium are measured using an automated fluorescent imaging plate reader (FLIPR). […]

T1 sequence (P41594 21-942 isoform P41594-3): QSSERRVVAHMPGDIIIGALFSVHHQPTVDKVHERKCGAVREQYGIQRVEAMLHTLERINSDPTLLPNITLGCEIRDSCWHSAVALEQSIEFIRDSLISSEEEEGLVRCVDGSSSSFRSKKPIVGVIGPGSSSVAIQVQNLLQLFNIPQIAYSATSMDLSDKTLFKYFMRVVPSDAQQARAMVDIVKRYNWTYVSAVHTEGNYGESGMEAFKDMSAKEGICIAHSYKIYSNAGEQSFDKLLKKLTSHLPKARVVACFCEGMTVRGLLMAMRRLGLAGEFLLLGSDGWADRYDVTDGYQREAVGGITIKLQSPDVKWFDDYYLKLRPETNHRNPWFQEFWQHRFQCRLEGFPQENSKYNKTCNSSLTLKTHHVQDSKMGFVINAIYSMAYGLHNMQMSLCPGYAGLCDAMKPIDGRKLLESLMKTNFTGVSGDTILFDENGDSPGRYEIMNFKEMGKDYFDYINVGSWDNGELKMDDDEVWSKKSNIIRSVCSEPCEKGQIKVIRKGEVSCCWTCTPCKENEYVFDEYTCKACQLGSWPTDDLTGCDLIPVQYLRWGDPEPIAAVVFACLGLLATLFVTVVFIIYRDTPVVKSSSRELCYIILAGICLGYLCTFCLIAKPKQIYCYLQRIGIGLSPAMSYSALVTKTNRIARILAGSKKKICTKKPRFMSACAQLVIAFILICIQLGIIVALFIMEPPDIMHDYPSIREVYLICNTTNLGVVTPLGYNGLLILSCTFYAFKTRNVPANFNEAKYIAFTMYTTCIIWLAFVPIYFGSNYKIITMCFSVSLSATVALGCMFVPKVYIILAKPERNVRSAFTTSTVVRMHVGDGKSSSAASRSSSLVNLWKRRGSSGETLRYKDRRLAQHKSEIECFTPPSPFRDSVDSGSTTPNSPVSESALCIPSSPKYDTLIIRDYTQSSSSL
T2 sequence (P41594 21-942 isoform P41594-3): as above
T3 sequence (P41180 with tags, fused parts or gaps): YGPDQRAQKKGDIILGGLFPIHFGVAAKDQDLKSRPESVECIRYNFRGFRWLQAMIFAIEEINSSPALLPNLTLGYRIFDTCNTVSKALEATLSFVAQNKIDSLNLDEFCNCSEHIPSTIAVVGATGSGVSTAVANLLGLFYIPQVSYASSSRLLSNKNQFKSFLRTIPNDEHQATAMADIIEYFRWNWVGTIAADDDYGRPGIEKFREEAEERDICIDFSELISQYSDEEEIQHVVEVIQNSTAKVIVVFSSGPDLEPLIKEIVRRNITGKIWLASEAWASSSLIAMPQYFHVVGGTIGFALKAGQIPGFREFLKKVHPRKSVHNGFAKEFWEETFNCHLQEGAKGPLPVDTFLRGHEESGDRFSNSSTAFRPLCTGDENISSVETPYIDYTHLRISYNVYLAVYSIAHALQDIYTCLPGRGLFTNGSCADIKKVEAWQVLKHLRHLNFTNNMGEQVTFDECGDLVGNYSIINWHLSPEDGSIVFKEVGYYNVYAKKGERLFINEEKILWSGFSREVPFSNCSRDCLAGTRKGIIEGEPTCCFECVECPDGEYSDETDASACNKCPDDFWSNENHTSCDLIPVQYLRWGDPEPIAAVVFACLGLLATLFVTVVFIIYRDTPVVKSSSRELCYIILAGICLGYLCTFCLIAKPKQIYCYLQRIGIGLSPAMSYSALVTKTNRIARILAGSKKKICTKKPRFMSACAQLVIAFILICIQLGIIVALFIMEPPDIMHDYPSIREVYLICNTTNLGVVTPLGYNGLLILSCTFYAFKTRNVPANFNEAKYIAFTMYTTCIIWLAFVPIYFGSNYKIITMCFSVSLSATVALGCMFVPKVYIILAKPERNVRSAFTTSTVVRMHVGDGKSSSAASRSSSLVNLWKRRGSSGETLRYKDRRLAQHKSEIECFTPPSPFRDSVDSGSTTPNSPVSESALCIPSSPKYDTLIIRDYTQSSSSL

functional activation of the receptor (agonist) (hmGluR5d receptor)	functional activation of the chimeric receptor (agonist) [1]	Compound	desensitization of evoked calcium-activated chloride currents (human mGluR5d receptor)	increase in calcium-activated chloride current (receptor activation) (human mGluR5d receptor; 100 μM, applied by superfusion, voltage-clamped Xenopus oocytes expressing hmGluR5d)
functional activation	–	N[C@H](C(=O)O)c1cc(O)cc(O)c1 [DHPG, (S)-3,5-dihydroxyphenylglycine]	only minimally desensitized	–
–	–	N[C@@H](CCC(=O)O)C(=O)O [L-glutamate]	only minimally desensitized	reversible, oscillatory increases in the calcium-activated chloride current
–	functional activation	calcium	–	–
